Series [1] concerns Mycobacterium avium MA CNCTC My 330/88. As to the kind of experiment: In vitro antimycobacterial evaluation. The format is cell-based. The conditions noted are these: IC90 value.
For series [2], the system named is Trichophyton mentagrophytes 445. The series can be described thus: In vitro antifungal susceptibility testing (broth microdilution). The format is cell-based. The settings on record: M38-A for moulds, IC50 value, read-out: MIC TM. (In broth dilution the organism is exposed to a series of concentrations in liquid medium.)
Series [3] concerns photosynthetic electron transport (PET) in spinach chloroplasts. As to the kind of experiment: Inhibition of photosynthetic electron transport (PET) in spinach chloroplasts. It is filed as biochemical, Spinacia oleracea L. The conditions noted are these: DCPIP photoreduction. The protocol:
Chloroplasts were prepared from spinach (Spinacia oleracea L.) according to Masarovicova and Kralova. The inhibition of photosynthetic electron transport (PET) in spinach chloroplasts was determined spectrophotometrically (Genesys 6, Thermo Scientific, USA), using an artificial electron acceptor 2,6-dichlorophenol-indophenol (DCIPP) according to Kralova et al., and the rate of photosynthetic electron transport was monitored as a photoreduction of DCPIP. The measurements were carried out in phosphate buffer (0.02 mol/L, pH 7.2) containing sucrose (0.4 mol/L), MgCl2 (0.005 mol/L) and NaCl (0.015 mol/L). The chlorophyll content was 30 mg/L in these experiments and the samples were irradiated (~100 W/m^2) from 10 cm distance with a halogen lamp (250 W) using a 4 cm water filter to prevent warming of the samples. The studied compounds were dissolved in DMSO due to their limited water solubility. […] The inhibitory efficiency of the studied compounds was expressed by IC50 values, i.e. by molar concentration of the compounds causing 50% decrease in the oxygen evolution rate relative to the untreated control.

In series [4] the test system is Mycobacterium tuberculosis MTB CNCTC My 331/88. The series can be described thus: In vitro antimycobacterial evaluation. The format is cell-based. The conditions noted are these: IC90 value.
Series [5] relates to Mycobacterium kansasii MK CNCTC My 235/80. The series can be described thus: In vitro antimycobacterial evaluation. It is filed as cell-based. The settings on record: IC90 value.
The next series relates to Candida tropicalis 156. As to the kind of experiment: In vitro antifungal susceptibility testing (broth microdilution). The conditions noted are these: M27-A2 for yeasts, IC80 value. The format is cell-based.
Series [6] in a line: Lipophilicity determination by RP-HPLC (capacity factor k / log k). The format is physicochemical. The settings on record: C18 column, MeOH 70% / H2O 30%, isocratic. The protocol: Hydrophobicities (log P/Clog P) of compounds 8 and 9 were calculated using two commercially available programs (ChemOffice Ultra 10.0 and ACD/LogP) and measured by means of RP-HPLC determination of capacity factors k with subsequent calculation of log k. The procedure was performed under isocratic conditions with methanol as an organic modifier in the mobile phase using an end-capped non-polar C18 stationary RP column. The results are shown in Table 1 and illustrated in Figure 1.
A Waters Alliance 2695 XE HPLC separation module and a Waters Photodiode Array Detector 2996 (Waters Corp., Milford, MA, USA) were used. A Symmetry® C18 5 μm, 4.6 × 250 mm, Part No. WAT054275 (Waters Corp., Milford, MA, USA) chromatographic column was used. The HPLC separation process was monitored by Empower™ 2 Chromatography Data Software, Waters 2009 (Waters Corp., Milford, MA, USA). A mixture of MeOH p.a. (70%) and H2O-HPLC – Mili-Q Grade (30%) was used as a mobile phase. The total flow of the column was 1.0 mL/min, injection volume, 30 μL, column temperature, 30 °C and sample temperature, 10 °C. The detection wavelength of 210 nm was chosen. The KI methanolic solution was used for the dead time (tD) determination. Retention times (tR) were measured in minutes. The capacity factors k were calculated using the Empower™ 2 Chromatography Data Software according to formula k = (tR - tD)/tD, where tR is the retention time of the solute, whereas tD denotes the dead time obtained using an unretained analyte. Log k, calculated from the capacity factor k, is used as the lipophilicity index converted to log P scale.

Series [7] relates to Enterococcus sp. J 14365/08. As to the kind of experiment: In vitro antibacterial susceptibility testing (broth microdilution). The conditions noted are these: read-out: MIC EF.
Series [8] relates to Staphylococcus epidermidis H 6966/08. The series is described as above. The conditions noted are these: read-out: MIC SE.
In series [9] the test system is methicilin resistant Staphylococcus aureus H 5996/08. The description is as above. The conditions noted are these: MRSA, read-out: MIC MRSA.
Series [10] has as its system Staphylococcus aureus CCM 4516/08. The description is as above. The settings on record: read-out: MIC SA.

Consider four compounds from paper PMC6259751, “Investigating Spectrum of Biological Activity of 4- and 5-Chloro-2-hydroxy-N-[2-(arylamino)-1-alkyl-2-oxoethyl]benzamides” (Molecules, 2011).

A word on the MIC: it is the lowest concentration that inhibits growth of the organism. One may read the IC50 as the concentration needed to halve the response being measured.

In brackets after ≈: the same amount, converted by molar mass. Several values for one entry are separate records, joined by “and”; a condition that tells them apart may be missing. Equal values may be shown once. Read-outs that look alike come from different tables or passages of the source. A value given as a limit tells only on which side of the number the result lay.

As to `O=C(N[C@@H](Cc1ccccc1)C(=O)Nc1ccc(Br)cc1)c1cc(Cl)ccc1O` [8u], the MIC in series [1] (14h) was 250 µM (≈ 118 µg/mL); in series [1] (21h) it was 250 µM (≈ 118 µg/mL); in series [2] (72h), 500 µM (≈ 237 µg/mL); in [2] (120h), over 500 µM; in series [4] (14h), 32 µM (≈ 15.2 µg/mL); in [4] (21h) it was 32 µM (≈ 15.2 µg/mL). Further, the MIC in series [5] (14h) was 62.5 µM (≈ 29.6 µg/mL); in series [5] (21h), 125 µM (≈ 59.2 µg/mL); against Candida tropicalis 156 (24h) it was 500 µM (≈ 237 µg/mL); against Candida tropicalis 156 (48h), over 500 µM; in series [7] (SP.J14365/08, 24 h), over 125 µM; in series [7] (SP.J14365/08, 48 h), over 125 µM. For the same compound, the MIC in series [8] (H6966/08, 24 h) is over 125 µM; in series [8] (H6966/08, 48 h), over 125 µM; in series [9] (24 h), over 125 µM; in [9] (48 h), over 125 µM; in series [10] (CCM4516, 24 h), over 125 µM; in series [10] (CCM4516, 48 h), over 125 µM. In series [3], the IC50 was determined as 31.2 µM. The compound further showed a log k in series [6] of 0.7779.

`CC(C)[C@@H](NC(=O)c1cc(Cl)ccc1O)C(=O)Nc1cccc(Cl)c1` [8e]: the MIC in [1] (14h) turned out to be 62.5 µM (≈ 23.8 µg/mL); in series [1] (21h), 125 µM (≈ 47.7 µg/mL); in series [2] (72h) it was 125 µM (≈ 47.7 µg/mL); in [2] (120h) it was 125 µM (≈ 47.7 µg/mL); in series [4] (14h), 32 µM (≈ 12.2 µg/mL); in series [4] (21h) it was 62.5 µM (≈ 23.8 µg/mL). In addition, the MIC in [5] (14h) worked out at 62.5 µM (≈ 23.8 µg/mL); in [5] (21h), 125 µM (≈ 47.7 µg/mL); against Candida tropicalis 156 (24h), 15.6 µM (≈ 5.96 µg/mL); in the series on Candida tropicalis 156 (48h), 62.5 µM (≈ 23.8 µg/mL); in series [7] (SP.J14365/08, 24 h) it was 62.5 µM (≈ 23.8 µg/mL); in series [7] (SP.J14365/08, 48 h), 250 µM (≈ 95.3 µg/mL). Further, the MIC in [8] (H6966/08, 24 h) is 31.2 µM (≈ 11.9 µg/mL); in [8] (H6966/08, 48 h), 31.2 µM (≈ 11.9 µg/mL); in series [9] (24 h), 31.2 µM (≈ 11.9 µg/mL); in [9] (48 h) it was 31.2 µM (≈ 11.9 µg/mL); in series [10] (CCM4516, 24 h), 15.6 µM (≈ 5.96 µg/mL); in [10] (CCM4516, 48 h), 15.6 µM (≈ 5.96 µg/mL). For the same compound, in series [3], the midpoint of inhibition, the IC50, lay at 20.4 µM. For the same compound, in series [6], the log k was 0.61 and 0.6114.

Turning to `CC(C)[C@H](NC(=O)c1cc(Cl)ccc1O)C(=O)Nc1ccc(Br)cc1` [8s], the MIC in series [1] (14h) was 62.5 µM (≈ 26.6 µg/mL); in series [1] (21h) it was 62.5 µM (≈ 26.6 µg/mL); in series [2] (72h) it was over 125 µM; in [2] (120h), over 125 µM; in [4] (14h) it was 62.5 µM (≈ 26.6 µg/mL); in [4] (21h), 62.5 µM (≈ 26.6 µg/mL). The minimum inhibitory concentration (MIC) was 62.5 µM (≈ 26.6 µg/mL) in series [5] (14h); 125 µM (≈ 53.2 µg/mL) in series [5] (21h); over 125 µM in the series on Candida tropicalis 156 (24h); over 125 µM in the series with Candida tropicalis 156 (48h); over 125 µM in [7] (SP.J14365/08, 24 h); over 125 µM in series [7] (SP.J14365/08, 48 h). Besides, the MIC in [8] (H6966/08, 24 h) is over 125 µM; in series [8] (H6966/08, 48 h), over 125 µM; in [9] (24 h), over 125 µM; in series [9] (48 h), over 125 µM; in series [10] (CCM4516, 24 h) it was over 125 µM; in series [10] (CCM4516, 48 h) it was over 125 µM. The compound also displayed an IC50 in [3] of 26.2 µM. This compound displayed a log k in [6] of 0.6709.

In the case of `C[C@H](NC(=O)c1ccc(Cl)cc1O)C(=O)Nc1ccc(Cl)cc1` [9a], the MIC in series [1] (14h) is 125 µM (≈ 44.2 µg/mL); in series [1] (21h) it was 125 µM (≈ 44.2 µg/mL); in series [2] (72h), over 250 µM; in [2] (120h), over 250 µM; in series [4] (14h) it was 62.5 µM (≈ 22.1 µg/mL); in series [4] (21h) it was 62.5 µM (≈ 22.1 µg/mL). In addition, the MIC in series [5] (14h) is 125 µM (≈ 44.2 µg/mL); in series [5] (21h), 125 µM (≈ 44.2 µg/mL); with Candida tropicalis 156 (24h) it was over 250 µM; in the series with Candida tropicalis 156 (48h), over 250 µM; in [7] (SP.J14365/08, 24 h), 500 µM (≈ 177 µg/mL); in [7] (SP.J14365/08, 48 h), 500 µM (≈ 177 µg/mL). For the same compound, the MIC in series [8] (H6966/08, 24 h) came out at 250 µM (≈ 88.3 µg/mL); in [8] (H6966/08, 48 h), 250 µM (≈ 88.3 µg/mL); in series [9] (24 h) it was 500 µM (≈ 177 µg/mL); in [9] (48 h), 500 µM (≈ 177 µg/mL); in series [10] (CCM4516, 24 h), 250 µM (≈ 88.3 µg/mL); in series [10] (CCM4516, 48 h) it was 500 µM (≈ 177 µg/mL). The compound also gave an IC50 in series [3] of 61.5 µM. Further, in series [6], the log k is 0.4934.
